In ChEMBL document CHEMBL1138928, “Toward orthopoxvirus countermeasures: a novel heteromorphic nucleoside of unusual structure” (J Med Chem, 2006):

Tested on: Vaccinia virus
Test: Antiviral activity against vaccinia virus in HFF cells by cytopathogenic effect assay
Assay type: functional, organism-based
Conditions: Orthopoxvirus vaccinia

| SMILES | EC50 [µM] |
| --- | --- |
| N#CC1=C(N)OC2=C(C(=O)CCC2)C1c1cn([C@H]2C[C@@H](O)[C@@H](CO)O2)c(=O)[nH]c1=O (some centres not stated) | 0.6 |
| Nc1ccn(C[C@@H](CO)OCP(=O)(O)O)c(=O)n1 [CIDOFOVIR] | 3.2 |
